The record followed here is ChEMBL document CHEMBL1124716, “Structure and activity of hydrogenated derivatives of (+)-5-methyl-10,11-dihydro-5H-dibenzo[a,d]cyclohepten-5,10-imine (MK-801)” (J Med Chem, 1990).

As usually defined, the IC50 is the concentration that gives 50% inhibition. Low readings indicate higher potency, high ones lower potency. For orientation: Kb means the affinity of an antagonist, worked out from how it opposes an agonist.

Experiment [1] in a line: Ability to inhibit [3H]-MK-801 binding to N-methyl-D-aspartate glutamate receptor of rat cortical membranes.
A short description of experiment [2]: N-methyl-D-aspartate glutamate receptor antagonist activity was determined in rat cortical slice preparation. Type of experiment: functional.

Turning to `CC12N[C@H](Cc3ccccc31)C1=CCCCC12` (stereo not given in full), the IC50 in experiment [1] was 0.06 µM. The Kb in experiment [2] is 0.3 µM.

`CN1C2(C)c3ccccc3C1(C)C1CCCCC12` (stereo not given): in experiment [1], the IC50 came to 0.111 µM.

Consider `CC12N[C@H](Cc3ccccc31)C1=C2CC=CC1`, for which the IC50 in experiment [1] came to 0.02 µM.

In turn, `OCCC12N[C@H](Cc3ccccc31)C1CCCCC12` (stereo not given in full) returned an IC50 in experiment [1] of 0.22 µM. Besides, the antagonist equilibrium constant (Kb) in experiment [2] turned out to be 0.24 µM.

In turn, `CC12N[C@H](CC3CCCCC31)C1CCCCC12` (stereo not given in full) showed an IC50 in experiment [1] of 0.035 µM. The same compound gave a Kb in experiment [2] of 0.8 µM.

The compound `CC12N[C@H](CC3=C1CCCC3)c1ccccc12` came in with an IC50 in experiment [1] of 0.193 µM. The compound further yielded a Kb in experiment [2] of 0.27 µM.

For the compound `COc1ccc2c(c1)C1(C)N[C@@H]2CC2CCCCC21` (stereo not given in full), the half-inhibitory concentration (IC50) in experiment [1] was determined as 0.24 µM. Further, the Kb in experiment [2] was determined as 0.31 µM.

For `CC12N[C@H](CC3CCCCC31)c1ccccc12` (stereo not given in full), the IC50 in experiment [1] stood at 0.188 µM. In experiment [2], this compound returned a Kb of 0.13 µM.

In experiment [1], `CC12NC(Cc3ccccc31)CC1CCCCC12` (stereo not given) registered an IC50 of 0.164 µM. In experiment [2], this compound displayed a Kb of 0.25 µM.

Consider `OCCC12N[C@](O)(Cc3ccccc31)C1CCCCC12` (stereo not given in full), for which the half-maximal inhibitory concentration (IC50) in experiment [1] amounted to 0.396 µM. In experiment [2], this compound came in with a Kb of 0.77 µM.

For `CC12N[C@H](Cc3ccccc31)C1CCCCC12` (stereo not given in full), in experiment [1], the IC50 was determined as 0.016 µM. Also, the Kb in experiment [2] was determined as 0.23 µM.

In the case of `CC12N[C@H](Cc3ccccc31)C1=CC=CCC12` (stereo not given in full), the IC50 in experiment [1] turned out to be 0.021 µM. In addition, in experiment [2], the antagonist dissociation constant (Kb) stood at 0.27 µM.

`CC12N[C@@H](C3CCCCC31)[C@H](O)c1ccccc12` (stereo not given in full): in experiment [1], the half-maximal inhibitory concentration (IC50) came out at 0.069 µM. The same compound displayed a Kb in experiment [2] of 0.25 µM.

On to `CC12NC(Cc3ccccc31)c1ccccc12` (single isomer, unassigned), for which, in experiment [1], the IC50 came to 0.0305 µM. The compound further displayed a Kb in experiment [2] of 0.13 µM.

In experiment [1], `CC12N[C@H](CC3=C1CCCC3)C1CCCCC12` (stereo not given in full) registered an IC50 of 0.08 µM. Further, the Kb in experiment [2] turned out to be 0.28 µM.

As for `CN1[C@@H]2Cc3ccccc3[C@@]1(C)C1CCCCC12` (stereo not given in full), the IC50 in experiment [1] worked out at 0.096 µM. In addition, the Kb in experiment [2] came out at 0.29 µM.
